Assay [1] deals with Thymidine kinase 2, mitochondrial (Homo sapiens) (UniProt O00142). As to the kind of experiment: Inhibitory concentration on phosphorylation of [methyl-3H]-dTh by human Thymidine Kinase 2.
Assay [2] addresses Thymidine kinase (Herpes simplex virus 1). As to the kind of experiment: Inhibitory concentration on phosphorylation of [methyl-3H]-dTh by HSV-1 Thymidine Kinase.

Each structure is given as a SMILES string.

Thymidine kinase 2, mitochondrial (Homo sapiens), sequence (O00142 whole entry, looked up): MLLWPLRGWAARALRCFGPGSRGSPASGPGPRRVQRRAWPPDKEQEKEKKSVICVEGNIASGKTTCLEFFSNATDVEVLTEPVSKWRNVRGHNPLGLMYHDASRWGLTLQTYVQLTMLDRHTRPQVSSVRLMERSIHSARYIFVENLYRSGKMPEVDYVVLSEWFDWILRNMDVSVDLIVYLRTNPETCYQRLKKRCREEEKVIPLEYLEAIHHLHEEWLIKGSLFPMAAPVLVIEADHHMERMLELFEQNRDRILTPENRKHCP

By IC50 is commonly meant the concentration that gives 50% inhibition. Low values mean greater potency, high ones weaker potency. On to `Cc1cn(C/C=C\CN(Cc2ccccc2)Cc2ccccc2)c(=O)[nH]c1=O` [1-(4-Dibenzylamino-but-2-enyl)-5-methyl-1H-pyrimidine-2,4-dione], for which, in assay [1], the IC50 turned out to be 3.5 µM.

Consider `Cc1cn(C/C=C\CNC(=O)c2cccc(C(F)(F)F)c2)c(=O)[nH]c1=O` [N-[4-(5-Methyl-2,4-dioxo-3,4-dihydro-2H-pyrimidin-1-yl)-but-2-enyl]-3-trifluoromethyl-benzamide], for which the half-maximal inhibitory concentration (IC50) was 72 µM in assay [2] and 28 µM in assay [1]. The corresponding values for `Cc1cn(C/C=C\CNCc2ccccc2)c(=O)[nH]c1=O` [1-(4-Benzylamino-but-2-enyl)-5-methyl-1H-pyrimidine-2,4-dione] are greater than 500 µM and 57 µM.

The values above are taken from BindingDB's records for doi:10.1016/s0960-894x(03)00639-5 (Instituto De Química Médica (Csic), 2003).
